Reference: patent EP1046400B1, “Use of an Equine herpes virus type-4 thymidine kinase and a nucleoside analog selected from ganciclovir and acyclovir for the killing of human proliferative cells” (Université Pierre et Marie Curie (Paris VI), priority 1999, dated 2000)

Legend:
NIH-3T3 = assay: Cytotoxicity assay (inhibition of [methyl-3H]thymidine incorporation), parental cells; format: cell-based, murine; settings: Mus musculus, parental NIH-3T3
Protocol: (§1) Cells were seeded at 2.5x10^3 per wells in 24-wells plates. 24 h later they were grown in drug-containing medium for 7 days. Drug concentrations ranging from 0.001 nM to 100 µM were tested in triplicate. The medium was changed with fresh DMEM every 2 days. On day 6, 1.5 µCi of [methyl-^3H]thymidine (Amersham, UK) was added per well. After washes with phosphate-buffered saline (PBS pH 7.3), incorporated radioactivity was determined with a Micro-Beta Plus counter (EG&G Instruments and Wallac, Turku, Finland).
(§2) Drug toxicity was assessed by measuring inhibition of cell proliferation. Cells were grown in drug-containing medium for 7 days. [methyl-^3H]-thymidine was added at day 6 and incorporated radioactivity was measured.

[1] = system: EBV-TK expressing tk(-) 3T3 cells (bulk); assay: Cytotoxicity assay, bulk transfected tk(-) 3T3 cells; format: cell-based, murine; settings: for IC50: Mus musculus, NIH3T3, 168 h; for Selectivity Index: IC50 ratio of parental to EBV-TK transfected cells (bulk)
Protocol: (§3) Cells were transfected by the various plasmids using a calcium phosphate precipitation kit (GibcoBRL). After 48 h of phenotypic expression, cells were grown in selective medium with zeocin (Cayla, Toulouse, France): 25 µg/ml (3T3 cells), 50 µg/ml (143 B cells) or 100 µg/ml (PANC-O2 and HCT 116 cells).
as §1, §2

[2] = system: HSV1-TK expressing tk(-) 3T3 cells (bulk); assay: as above; format: cell-based, murine; settings: for IC50: Mus musculus, NIH3T3, 168 h; for Selectivity Index: IC50 ratio of parental to HSV1-TK transfected cells (bulk)
Protocol: as §3, §1, §2

[3] = system: murine tk(-) 3T3 HSV1-TK expressing clones; assay: Cytotoxicity assay, TK expressing clones; format: cell-based; settings: for IC50: Mus musculus, Table 2, HSV1-TK clones, mean of 3 experiments; for Selectivity Index: IC50 ratio of parental to HSV1-TK clones
Protocol: as §1
(§4) Drug sensitivity of TK expressing clones were tested as described in Table 1.

[4] = system: EHV4-TK expressing tk(-) 3T3 cells (bulk); assay: Cytotoxicity assay, bulk transfected tk(-) 3T3 cells; format: cell-based, murine; settings: for Selectivity Index: IC50 ratio of parental to EHV4-TK transfected cells (bulk); for IC50: Mus musculus, NIH3T3, 168 h
Protocol: (§5) Cells were transfected by the various plasmids using a calcium phosphate precipitation kit (GibcoBRL).
as §1, §2

[5] = system: VZV-TK expressing tk(-) 3T3 cells (bulk); assay: as above; format: cell-based, murine; settings: for Selectivity Index: IC50 ratio of parental to VZV-TK transfected cells (bulk); for IC50: Mus musculus, NIH3T3, 168 h
Protocol: as §5, §1, §2

[6] = system: murine tk(-) 3T3 EHV4-TK expressing clones; assay: Cytotoxicity assay, TK expressing clones; format: cell-based; settings: for Selectivity Index: IC50 ratio of parental to EHV4-TK clones; for IC50: Mus musculus
Protocol: as §1, §4

[7] = system: human tk(-) 143B cells transfected with HSV1- or EHV4-TK; assay: Cytotoxic activity on human cell bulks, EHV4-TK compared with HSV1-TK (Figure 3); format: cell-based; settings: human tk(-) 143B cell bulks
Protocol: Toxicity is presented as mean of IC50 values ± SD. The means, determined on 3 independent experiments, are indicated on the top of each histogram.
as §1
Human tk(-) osteosarcoma 143B cell bulks expressing HSV1- or EHV4-TK were thus generated. We first analyzed the herpesvirus-TK protein expression levels for each cell bulks by […] using polyclonal antibodies against Sh protein (Figure 2-B). There was no detectable band corresponding to fused protein in tk(-) 143B cell extracts.

[8] = system: EHV4-TK expressing PANC-O2 cell bulk; assay: Cytotoxicity assay, pancreatic tumor cell bulk; format: cell-based, murine
Protocol: as §1

[9] = system: HSV1-TK expressing PANC-O2 cell bulk; assay: Cytotoxicity assay, pancreatic tumor cell bulk; format: cell-based, murine; settings: Mus musculus, means of two independent experiments
Protocol: as §1

HCT116 cells = assay: Cytotoxicity assay, colonic carcinoma cells, parental; format: cell-based; settings: Homo sapiens, HCT-116, mean
Protocol: as §1

[10] = system: EHV4-TK expressing HCT116 cells; assay: Cytotoxicity assay, colonic carcinoma cells; format: cell-based, human
Protocol: as §1

[11] = system: HSV1-TK expressing HCT116 cells; assay: Cytotoxicity assay, colonic carcinoma cells; format: cell-based, human
Protocol: as §1

[12] = system: tk(-) 3T3 cells expressing EHV4-TK/E-GFP fusion protein; assay: GCV toxicity, viability assay (Figure 5-B); format: cell-based, murine; settings: Mus musculus, NIH3T3
Protocol: (§6) (A) E-GFP expression in tk(-) 3T3 transfected and non-transfected cells. EHV4-TK gene fused with E-GFP gene (Figure 1-B) was transfected in tk(-) 3T3 cells, and E-GFP positive cells were detected by FACS analysis. Expression of E-GFP was determined a week after transfection (1) and after 2 months of culture in HAT medium (2). (B) GCV toxicity in transfected and non-transfected cells. Results were expressed as % of viable cells compared to cells grown without GCV.
(§7) Parental and viral-TK expressing cells were plated at 5x10^3 per wells in 6-wells dishes. After 24 h, drugs was added to the medium at various concentrations ranging from 0.01 to 100 µM. Medium containing drugs was changed every 2 days. After 7 days of culture, cell viability was assayed by counting viable cells by trypan blue exclusion after 7 days of culture with GCV.
(§8) To facilitate the transgene detection in transfected cells or tissues, the E-GFP gene was fused in frame at the 3' end of the EHV4-TK gene and cloned into an expression vector (Figure 1-B). This construction was then transfected into tk(-) 3T3 cells, followed by FACS analysis of E-GFP positive cells. A cell bulk containing 95% of E-GFP expressing cells was obtained. […] Expression of the EHV4-TK/E-GFP fusion protein efficiently sensitized these cells to GCV for which the IC50 was 0.6 µM, compared to 30 µM for tk(-) 3T3 cells (Figure 5-B).

tk(-) 3T3 cells = assay: GCV toxicity, viability assay (Figure 5-B), non-transfected cells; format: cell-based, murine; settings: Mus musculus, NIH3T3; non-transfected tk(-) 3T3; % viable cells
Protocol: as §6, §7, §8

[13] = 10 mg/kg twice a day, humans (refs 34, 35); cited from earlier work
[14] = NIH3T3, 168 h, Table 1, 7 days drug, mean of 2 experiments
[15] = NIH3T3, Table 2, mean of 3 experiments

| Structure (SMILES) | IC50 (NIH-3T3; [14]) [µM] | IC50 (NIH-3T3; [15]) [µM] | IC50 [1] [µM] | IC50 [2] [nM] | IC50 [3] [nM] | Selectivity Index [1] | Selectivity Index [2] | Selectivity Index [4] | IC50 [4] [nM] | Selectivity Index [5] | IC50 [5] [µM] | Selectivity Index [6] | IC50 [6] [nM] | Selectivity Index [3] | toxicity / sensitivity in EHV4-TK compared with HSV1-TK expressing cells [7] | also measured |
| --- | --- | --- | --- | --- | --- | --- | --- | --- | --- | --- | --- | --- | --- | --- | --- | --- |
| Nc1nc2c(ncn2COCCO)c(=O)[nH]1 [ACV, 9-(2-hydroxyethoxymethyl)guanine] | 165 | 53.3 | 43.3 | 8700 | 15000 | – | – | – | – | – | – | – | – | – | – | – |
| O=c1[nH]c(=O)n([C@H]2C[C@H](O)[C@@H](CO)O2)cc1/C=C/Br [BVDU, (E)-5-(2-bromovinyl)-2'-deoxyuridine] | 55 | 43.3 | 0.04 | 15 | 13 | 1375 | 5500 | 2750 | 20 | 2750 | 0.016 | 1237 | 35 | 3331 | greater in HSV1-TK than in EHV4-TK expressing cells | – |
| Nc1nc2c(ncn2COC(CO)CO)c(=O)[nH]1 [GCV, 9-(1,3-dihydroxy-2-propoxymethyl)guanine] | 70 | 36.7 | 6 | 200 | 160 | 12 | 350 | 700 | 100 | 9 | 8 | 612 | 60 | 230 | approximately twelve fold more sensitive | IC50 ([8]; Mus musculus): 550 ± 70 nM; IC50 fold lower for EHV4-TK than for HSV1-TK expressing cell bulk ([8]; PANC-O2): 3 fold; IC50 [9]: 1700 ± 500 nM; IC50 (HCT116 cells): 53.4 ± 15 µM; fold more sensitive than HCT116 cells ([10]; EHV4-TK expressing vs parental HCT116): 485 fold; IC50 fold lower for EHV4-TK than for HSV1-TK expressing cells ([10]; HCT116): 3 fold; IC50 ([10]; Homo sapiens, HCT-116, EHV4-TK HCT116, means ± SD for 3 independent experiments): 110 ± 20 nM; fold more sensitive than HCT116 cells ([11]; HSV1-TK expressing vs parental HCT116): 170 fold; IC50 ([11]; Homo sapiens, HCT-116, HSV1-TK HCT116, means ± SD for 3 independent experiments): 320 ± 80 nM; IC50 [12]: 600 nM; IC50 (tk(-) 3T3 cells): 30 µM; cerebral spinal fluid (CSF) concentrations, fold lower than plasmatic [13]: approximately 3 fold |
